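GI50 is the concentration that inhibits growth by half. TGI denotes the concentration required for complete inhibition of growth.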
Experiments:
Experiment in all cases: growth of human tumour cells (NCI), 384-well format
HCT-15 colon = system: HCT-15 colon
NCI/ADR-RES ovarian = system: NCI/ADR-RES ovarian
HCT-116 colon = system: HCT-116 colon
HOP-62 NSCLC = system: HOP-62 NSCLC
T-47D breast = system: T-47D breast
HCC-2998 colon = system: HCC-2998 colon
OVCAR-4 ovarian = system: OVCAR-4 ovarian
SF-295 CNS = system: SF-295 CNS
DU-145 prostate = system: DU-145 prostate
UO-31 renal = system: UO-31 renal
NCI-H460 NSCLC = system: NCI-H460 NSCLC
UACC-257 melanoma = system: UACC-257 melanoma
NCI-H226 lung = system: NCI-H226 lung
SNB-19 CNS = system: SNB-19 CNS
HS 578T breast = system: HS 578T breast
NCI-H23 lung = system: NCI-H23 lung
CCRF-CEM leukemia = system: CCRF-CEM leukemia
SK-MEL-5 melanoma = system: SK-MEL-5 melanoma
SW-620 colon = system: SW-620 colon
OVCAR-8 ovarian = system: OVCAR-8 ovarian
786-0 renal = system: 786-0 renal
A549 NSCLC = system: A549 NSCLC
RPMI-8226 leukemia = system: RPMI-8226 leukemia
NCI-H322M lung = system: NCI-H322M lung
BT-549 breast = system: BT-549 breast
SR leukemia = system: SR leukemia
OVCAR-3 ovarian = system: OVCAR-3 ovarian
SF-268 CNS = system: SF-268 CNS
SK-MEL-2 melanoma = system: SK-MEL-2 melanoma
IGROV1 ovarian = system: IGROV1 ovarian
CAKI-1 renal = system: CAKI-1 renal
OVCAR-5 ovarian = system: OVCAR-5 ovarian
EKVX NSCLC = system: EKVX NSCLC
RXF 393 renal = system: RXF 393 renal
HOP-92 NSCLC = system: HOP-92 NSCLC
SNB-75 CNS = system: SNB-75 CNS
K-562 leukemia = system: K-562 leukemia
TK-10 renal = system: TK-10 renal
HT29 colon = system: HT29 colon
U251 glioblastoma = system: U251 glioblastoma
SN12C renal = system: SN12C renal
MCF7 breast = system: MCF7 breast
SF-539 CNS = system: SF-539 CNS
KM12 colon = system: KM12 colon
PC-3 prostate = system: PC-3 prostate
MDA-MB-435 melanoma = system: MDA-MB-435 melanoma
ACHN renal = system: ACHN renal
MDA-MB-468 breast = system: MDA-MB-468 breast
MOLT-4 leukemia = system: MOLT-4 leukemia
NCI-H522 lung = system: NCI-H522 lung
HL-60(TB) leukemia = system: HL-60(TB) leukemia
SK-OV-3 ovarian = system: SK-OV-3 ovarian
A498 renal = system: A498 renal

Question: For `COC(=O)N1c2ccc3c(nc(Cc4ccccc4)n3[C@H]3CCC[C@H](C(=O)O)C3)c2CC[C@@H]1C`, which GI50 (HCT-15 colon) is on record?
Answer: 14.1 µM

Question: What about the TGI (HCT-15 colon) of the same molecule?
Answer: > 100 µM

Question: What about the GI50 (NCI/ADR-RES ovarian) of the same molecule?
Answer: 82.9 µM

Question: And the TGI (NCI/ADR-RES ovarian)?
Answer: > 100 µM

Question: What about the GI50 (HCT-116 colon) of the same molecule?
Answer: 13.9 µM

Question: What about the TGI (HCT-116 colon) of the same molecule?
Answer: > 100 µM

Question: What about the GI50 (HOP-62 NSCLC) of the same molecule?
Answer: 8.43 µM

Question: And the TGI (HOP-62 NSCLC)?
Answer: > 100 µM

Question: What about the GI50 (T-47D breast) of the same molecule?
Answer: 10 µM

Question: What about the TGI (T-47D breast) of the same molecule?
Answer: > 100 µM

Question: And the GI50 (HCC-2998 colon)?
Answer: 2050 nM

Question: And the TGI (HCC-2998 colon)?
Answer: 11.8 µM

Question: What about the GI50 (OVCAR-4 ovarian) of the same molecule?
Answer: 5.43 µM

Question: What about the TGI (OVCAR-4 ovarian) of the same molecule?
Answer: 31 µM

Question: And the GI50 (SF-295 CNS)?
Answer: 22 µM

Question: What about the TGI (SF-295 CNS) of the same molecule?
Answer: > 100 µM

Question: What about the GI50 (DU-145 prostate) of the same molecule?
Answer: 26.8 µM

Question: What about the TGI (DU-145 prostate) of the same molecule?
Answer: > 100 µM

Question: And the GI50 (UO-31 renal)?
Answer: 7.99 µM

Question: And the TGI (UO-31 renal)?
Answer: > 100 µM

Question: And the GI50 (NCI-H460 NSCLC)?
Answer: 31.5 µM

Question: And the TGI (NCI-H460 NSCLC)?
Answer: > 100 µM

Question: And the GI50 (UACC-257 melanoma)?
Answer: 5.22 µM

Question: What about the TGI (UACC-257 melanoma) of the same molecule?
Answer: 82 µM

Question: And the GI50 (NCI-H226 lung)?
Answer: 2080 nM

Question: What about the TGI (NCI-H226 lung) of the same molecule?
Answer: 40.2 µM

Question: And the GI50 (SNB-19 CNS)?
Answer: 9.78 µM

Question: What about the TGI (SNB-19 CNS) of the same molecule?
Answer: > 100 µM

Question: What about the GI50 (HS 578T breast) of the same molecule?
Answer: 1670 nM

Question: And the TGI (HS 578T breast)?
Answer: 33.7 µM

Question: What about the GI50 (NCI-H23 lung) of the same molecule?
Answer: 20 µM

Question: And the TGI (NCI-H23 lung)?
Answer: > 100 µM

Question: What about the GI50 (CCRF-CEM leukemia) of the same molecule?
Answer: 1830 nM

Question: And the TGI (CCRF-CEM leukemia)?
Answer: 19.2 µM

Question: And the GI50 (SK-MEL-5 melanoma)?
Answer: 2540 nM

Question: What about the TGI (SK-MEL-5 melanoma) of the same molecule?
Answer: 15.6 µM

Question: What about the GI50 (SW-620 colon) of the same molecule?
Answer: > 100 µM

Question: And the TGI (SW-620 colon)?
Answer: > 100 µM

Question: What about the GI50 (OVCAR-8 ovarian) of the same molecule?
Answer: 6.82 µM

Question: And the TGI (OVCAR-8 ovarian)?
Answer: 54.4 µM

Question: What about the GI50 ([…]-0 renal) of the same molecule?
Answer: 6.57 µM

Question: What about the TGI (786-0 renal) of the same molecule?
Answer: > 100 µM

Question: What about the GI50 (A549 NSCLC) of the same molecule?
Answer: 26.6 µM

Question: What about the TGI (A549 NSCLC) of the same molecule?
Answer: > 100 µM

Question: And the GI50 (RPMI-8226 leukemia)?
Answer: 133 nM

Question: What about the TGI (RPMI-8226 leukemia) of the same molecule?
Answer: 314 nM

Question: What about the GI50 (NCI-H322M lung) of the same molecule?
Answer: 11.1 µM

Question: And the TGI (NCI-H322M lung)?
Answer: 89.7 µM

Question: And the GI50 (BT-549 breast)?
Answer: 2670 nM

Question: And the TGI (BT-549 breast)?
Answer: 37.6 µM

Question: And the GI50 (SR leukemia)?
Answer: 1490 nM

Question: What about the TGI (SR leukemia) of the same molecule?
Answer: 18.3 µM

Question: And the GI50 (OVCAR-3 ovarian)?
Answer: 5.8 µM

Question: And the TGI (OVCAR-3 ovarian)?
Answer: 75 µM

Question: And the GI50 (SF-268 CNS)?
Answer: 24.2 µM

Question: And the TGI (SF-268 CNS)?
Answer: > 100 µM

Question: And the GI50 (SK-MEL-2 melanoma)?
Answer: 14.7 µM

Question: And the TGI (SK-MEL-2 melanoma)?
Answer: > 100 µM

Question: And the GI50 (IGROV1 ovarian)?
Answer: 7.99 µM

Question: What about the TGI (IGROV1 ovarian) of the same molecule?
Answer: 77.4 µM

Question: And the GI50 (CAKI-1 renal)?
Answer: 1480 nM

Question: What about the TGI (CAKI-1 renal) of the same molecule?
Answer: > 100 µM

Question: And the GI50 (OVCAR-5 ovarian)?
Answer: 12.5 µM

Question: What about the TGI (OVCAR-5 ovarian) of the same molecule?
Answer: 84.7 µM

Question: What about the GI50 (EKVX NSCLC) of the same molecule?
Answer: 47 µM

Question: And the TGI (EKVX NSCLC)?
Answer: > 100 µM

Question: What about the GI50 (RXF 393 renal) of the same molecule?
Answer: 4.47 µM

Question: What about the TGI (RXF 393 renal) of the same molecule?
Answer: 29.5 µM

Question: What about the GI50 (HOP-92 NSCLC) of the same molecule?
Answer: 3.5 µM

Question: What about the TGI (HOP-92 NSCLC) of the same molecule?
Answer: 81.9 µM

Question: And the GI50 (SNB-75 CNS)?
Answer: > 100 µM

Question: What about the TGI (SNB-75 CNS) of the same molecule?
Answer: > 100 µM

Question: And the GI50 (K-562 leukemia)?
Answer: 3.06 µM

Question: And the TGI (K-562 leukemia)?
Answer: > 100 µM

Question: And the GI50 (TK-10 renal)?
Answer: 2160 nM

Question: What about the TGI (TK-10 renal) of the same molecule?
Answer: 37.4 µM

Question: And the GI50 (HT29 colon)?
Answer: 6.35 µM

Question: And the TGI (HT29 colon)?
Answer: > 100 µM

Question: And the GI50 (U251 glioblastoma)?
Answer: 25 µM

Question: What about the TGI (U251 glioblastoma) of the same molecule?
Answer: > 100 µM

Question: What about the GI50 (SN12C renal) of the same molecule?
Answer: 11.5 µM

Question: What about the TGI (SN12C renal) of the same molecule?
Answer: > 100 µM

Question: What about the GI50 (MCF7 breast) of the same molecule?
Answer: 692 nM

Question: What about the TGI (MCF7 breast) of the same molecule?
Answer: 33.4 µM

Question: And the GI50 (SF-539 CNS)?
Answer: 20.4 µM

Question: And the TGI (SF-539 CNS)?
Answer: > 100 µM

Question: And the GI50 (KM12 colon)?
Answer: 14.7 µM

Question: What about the TGI (KM12 colon) of the same molecule?
Answer: > 100 µM

Question: What about the GI50 (PC-3 prostate) of the same molecule?
Answer: 4.78 µM

Question: What about the TGI (PC-3 prostate) of the same molecule?
Answer: > 100 µM

Question: And the GI50 (MDA-MB-435 melanoma)?
Answer: 14.5 µM

Question: What about the TGI (MDA-MB-435 melanoma) of the same molecule?
Answer: > 100 µM

Question: What about the GI50 (ACHN renal) of the same molecule?
Answer: 14.5 µM

Question: And the TGI (ACHN renal)?
Answer: > 100 µM

Question: What about the GI50 (MDA-MB-468 breast) of the same molecule?
Answer: 8.31 µM

Question: And the TGI (MDA-MB-468 breast)?
Answer: 61.2 µM

Question: What about the GI50 (MOLT-4 leukemia) of the same molecule?
Answer: 1940 nM

Question: And the TGI (MOLT-4 leukemia)?
Answer: 16.5 µM

Question: What about the GI50 (NCI-H522 lung) of the same molecule?
Answer: 1600 nM

Question: What about the TGI (NCI-H522 lung) of the same molecule?
Answer: 18.7 µM

Question: What about the GI50 (HL-60(TB) leukemia) of the same molecule?
Answer: 32.2 nM

Question: What about the TGI (HL-60(TB) leukemia) of the same molecule?
Answer: 1510 nM

Question: What about the GI50 (SK-OV-3 ovarian) of the same molecule?
Answer: 18.9 µM

Question: And the TGI (SK-OV-3 ovarian)?
Answer: > 100 µM

Question: And the GI50 (A498 renal)?
Answer: 24.9 µM

Question: What about the TGI (A498 renal) of the same molecule?
Answer: > 100 µM
